This is an account of results in ChEMBL document CHEMBL1142837, “Synthesis of new carbo- and heterocyclic analogues of 8-HETE and evaluation of their activity towards the PPARs” (Bioorg Med Chem Lett, 2005).

In general, EC50 refers to the concentration that produces a half-maximal response. Low values mean higher potency in that assay, high ones lower potency in that assay. A word on the Ki: it is the dissociation constant of the complex between target and ligand, obtained from inhibition or displacement. A lower Ki goes with higher affinity.

The target of test [1] is T1, Peroxisome proliferator-activated receptor alpha (Homo sapiens, UniProt Q07869).
T1 sequence (Q07869 whole entry): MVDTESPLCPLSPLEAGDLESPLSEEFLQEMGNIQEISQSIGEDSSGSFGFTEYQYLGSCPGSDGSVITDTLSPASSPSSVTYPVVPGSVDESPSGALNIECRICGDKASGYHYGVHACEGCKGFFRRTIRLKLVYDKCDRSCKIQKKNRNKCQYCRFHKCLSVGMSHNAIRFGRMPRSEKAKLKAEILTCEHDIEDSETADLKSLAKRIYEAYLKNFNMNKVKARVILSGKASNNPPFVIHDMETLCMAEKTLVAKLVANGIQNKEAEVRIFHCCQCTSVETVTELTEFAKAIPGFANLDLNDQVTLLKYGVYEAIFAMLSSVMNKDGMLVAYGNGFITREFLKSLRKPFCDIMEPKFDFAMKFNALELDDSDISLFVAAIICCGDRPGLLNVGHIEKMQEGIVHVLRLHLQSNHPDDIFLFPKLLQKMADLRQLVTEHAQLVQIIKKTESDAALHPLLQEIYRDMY
Nature of the test: In vitro effective concentration against human peroxisome proliferator activated receptor alpha/Gal4 in transactivation assay.

Test [2] addresses T2, Peroxisome proliferator-activated receptor gamma (Homo sapiens, UniProt P37231).
T2 sequence (P37231 whole entry): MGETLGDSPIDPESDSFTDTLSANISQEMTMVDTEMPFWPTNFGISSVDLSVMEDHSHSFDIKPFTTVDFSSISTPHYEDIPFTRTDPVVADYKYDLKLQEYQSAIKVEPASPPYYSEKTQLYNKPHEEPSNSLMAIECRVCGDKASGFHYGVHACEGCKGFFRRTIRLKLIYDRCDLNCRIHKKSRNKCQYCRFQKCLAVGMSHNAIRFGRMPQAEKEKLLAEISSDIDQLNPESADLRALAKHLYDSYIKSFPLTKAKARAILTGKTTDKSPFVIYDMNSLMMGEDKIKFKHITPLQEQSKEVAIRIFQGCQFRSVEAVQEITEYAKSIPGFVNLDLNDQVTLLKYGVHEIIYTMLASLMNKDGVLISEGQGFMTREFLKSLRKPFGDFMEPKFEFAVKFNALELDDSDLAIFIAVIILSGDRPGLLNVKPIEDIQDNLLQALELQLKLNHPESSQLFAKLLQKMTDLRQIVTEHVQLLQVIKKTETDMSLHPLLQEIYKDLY
Nature of the test: In vitro effective concentration against human peroxisome proliferator activated receptor gamma/Gal4 in cell-based transactivation assay. Format: functional.

The target of test [3] is T2, Peroxisome proliferator-activated receptor gamma.

With `CCCCCOc1ccccc1C(O)CC#CCCCC(=O)OC` (stereo unspecified), the 50% effective concentration (EC50) was 0.173 µM in test [1] and 0.642 µM in test [2]. The compound also displayed a Ki in test [3] of 1.05 µM.
As for `CCCCCOc1ncccc1C(O)C/C=C/CCCC(=O)OC` (stereo unspecified), the EC50 in test [1] and in test [2] was greater than 10 µM in each case. The compound also displayed a Ki in test [3] greater than 10 µM.
`CCCCCOc1ncccc1C(O)CCCCCCC(=O)OC` (stereo unspecified): the half-maximal effective concentration (EC50) in test [1] and in test [2] was greater than 10 µM in each case. In addition, the Ki in test [3] was greater than 10 µM.
With `CCCCCOc1ncccc1C(O)C/C=C/CCCC(=O)O` (stereo unspecified), the EC50 in test [1] and in test [2] was greater than 10 µM in each case. The compound further showed an inhibition constant (Ki) in test [3] greater than 10 µM.
Regarding `CCCCCOc1ccccc1C(O)CCCCCCC(=O)O` (stereo unspecified), the EC50 in test [1] and in test [2] was greater than 10 µM each time. In test [3], this compound showed a Ki of 6.69 µM.
Take `CCCCCOc1ccccc1C(O)CCCCCCC(=O)OC` (stereo unspecified): the EC50 in test [1] and in test [2] was greater than 10 µM each time. In test [3], this compound returned an inhibitory constant (Ki) of 0.515 µM.
In the case of `CCCCCOc1nc2ccccc2cc1C(O)CC#CCCCC(=O)OC` (stereo unspecified), the EC50 is 0.262 µM in test [1] and 1.41 µM in test [2]. Further, in test [3], the Ki was greater than 10 µM.
For the compound `CCCCCOc1ncccc1C(O)CCCCCCC(=O)O` (stereo unspecified), the 50% effective concentration (EC50) in test [1] and in test [2] was greater than 10 µM in each case. This compound displayed an inhibitory constant (Ki) in test [3] greater than 10 µM.
In the case of `CCCCCOc1cc2ccccc2cc1C(O)CC#CCCCC(=O)O` (stereo unspecified), the EC50 in test [2] was greater than 10 µM. Moreover, the affinity in test [3], expressed as Ki, was 4.39 µM.
Regarding `CCCCCOc1cc2ccccc2cc1C(O)CC#CCCCC(=O)OC` (stereo unspecified), the EC50 in test [1] is 1.14 µM; in test [2] it was greater than 10 µM. In test [3], this compound yielded an inhibitory constant (Ki) of 0.695 µM.
As for `CCCCCOc1cc2ccccc2cc1C(O)CCCCCCCC(=O)OC` (stereo unspecified), the EC50 in test [1] was 1.53 µM; in test [2] it was 1.36 µM. For the same compound, the affinity in test [3] corresponds to a Ki of 0.579 µM.
Turning to `CCCCCOc1cc2ccccc2cc1C(O)C/C=C/CCCC(=O)OC` (stereo unspecified), the EC50 in test [1] is 1.45 µM; in test [2], greater than 10 µM. The compound also showed an inhibition constant Ki in test [3] of 0.718 µM.
With `CCCCCOc1cc2ccccc2cc1C(O)CCCCCCC(=O)O` (stereo unspecified), the EC50 was 1.48 µM in test [1] and greater than 10 µM in test [2]. Moreover, the Ki in test [3] was 0.969 µM.
Turning to `CCCCCOc1nc2ccccc2cc1C(O)CCCCCCCC(=O)OC` (stereo unspecified), the EC50 in test [1] and in test [2] was greater than 10 µM throughout. Further, in test [3], the Ki is greater than 10 µM.
Consider `CCCCCOc1ncccc1C(O)CC#CCCCC(=O)O` (stereo unspecified), for which the values for the EC50 in test [1] and in test [2] were 1.54 µM and greater than 10 µM, respectively. In test [3], this compound yielded an inhibitory constant (Ki) greater than 10 µM.
Take `CCCCCOc1ccccc1C(O)CC=CCCCC(=O)OC` (stereo unspecified): the EC50 in test [1] is greater than 10 µM; in test [2], 0.028 µM. In test [3], affinity was put at a Ki of 3.76 µM.
`CCCCCOc1ccccc1C(O)CC=CCCCC(=O)O` (stereo unspecified): the concentration giving a half-maximal response (EC50) in test [1] was greater than 10 µM; in test [2] it was 0.34 µM. In addition, the inhibitory constant (Ki) in test [3] was greater than 10 µM.
Consider `CCCCCOc1nc2ccccc2cc1C(O)CC=CCCCC(=O)OC` (stereo unspecified), for which the concentration giving a half-maximal response (EC50) in test [1] worked out at 1.3 µM; in test [2] it was 1.55 µM. In test [3], this compound registered a Ki of 1.33 µM.
For `CCCCCOc1cc2ccccc2cc1C(O)CC=CCCCC(=O)O` (stereo unspecified), the concentration giving a half-maximal response (EC50) in test [1] turned out to be 1.19 µM; in test [2] it was 1.5 µM. Besides, the Ki in test [3] is 1.03 µM.
For `CCCCCOc1nc2ccccc2cc1C(O)CC=CCCCC(=O)O` (stereo unspecified), the EC50 in test [1] was determined as 1.09 µM; in test [2] it was 1.2 µM. Besides, in test [3], the inhibitory constant (Ki) is greater than 10 µM.
With `CCCCCOc1nc2ccccc2cc1C(O)CCCCCC(=O)O` (stereo unspecified), the EC50 in test [1] amounted to 1.4 µM; in test [2], 1.57 µM. This compound came in with a Ki in test [3] of 2.86 µM.
The like results for `CCCCCOc1ccccc1C(O)CC#CCCCC(=O)O` (stereo unspecified) were, in that order, greater than 10 µM, greater than 10 µM and greater than 10 µM.
Consider `CCCCCOc1ncccc1C(O)CC#CCCCC(=O)OC` (stereo unspecified), for which the EC50 came out at 1.63 µM in test [1] and 0.549 µM in test [2]. This compound registered a Ki in test [3] greater than 10 µM.
Consider `CCCCCOc1nc2ccccc2cc1C(O)CC#CCCCC(=O)O` (stereo unspecified), for which the EC50 in test [1] amounted to 0.114 µM; in test [2], 0.617 µM. The inhibition constant (Ki) in test [3] was 0.947 µM.
